Blank lines part the entries; values can stand above or below the compound they belong to. Calls of active or inactive are those of the source.
Columns and labels:
Cytochrome P450 2C9 = Cytochrome P450 2C9 (Homo sapiens, UniProt P11712)
Cytochrome P450 1A2 = molecular target: T1, Cytochrome P450 1A2 (Homo sapiens, UniProt P05177);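 note: PubChem cytochrome P450 panel assay, CYP1A2 panel member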
T1 sequence (P05177 whole entry): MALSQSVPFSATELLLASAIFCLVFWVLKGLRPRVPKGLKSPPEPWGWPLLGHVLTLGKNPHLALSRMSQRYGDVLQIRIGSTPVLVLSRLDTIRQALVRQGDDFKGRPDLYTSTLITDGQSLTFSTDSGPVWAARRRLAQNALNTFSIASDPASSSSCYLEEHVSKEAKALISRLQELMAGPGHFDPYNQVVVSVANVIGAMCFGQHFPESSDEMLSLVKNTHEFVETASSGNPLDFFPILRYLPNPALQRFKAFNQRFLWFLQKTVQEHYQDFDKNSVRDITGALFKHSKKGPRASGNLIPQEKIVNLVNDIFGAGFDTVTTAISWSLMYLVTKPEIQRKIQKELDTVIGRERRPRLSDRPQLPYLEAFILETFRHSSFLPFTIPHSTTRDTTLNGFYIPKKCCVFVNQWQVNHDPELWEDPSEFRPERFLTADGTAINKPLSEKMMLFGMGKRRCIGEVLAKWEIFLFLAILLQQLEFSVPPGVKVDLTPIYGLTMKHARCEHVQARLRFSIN

Cytochrome P450 2C19 = Cytochrome P450 2C19 (Homo sapiens, UniProt P33261); test: Cytochrome panel assay with activity outcomes. Panel member name: p450-cyp2c19 Compounds with AC50 equal or less than 10 uM are considered active; assay type: functional; conditions: read-out: AC50
[1] = viability of uninfected HEp-2 cells – cell-based, HTS, cytotoxicity control for RSV inhibitor project, dose response (AID 2410); assay type: functional; conditions: human respiratory syncytial virus
Cytochrome P450 2D6 = Cytochrome P450 2D6 (Homo sapiens, UniProt P10635);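 note: CYP2D6 member of a cytochrome P450 panel assay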
[2] = molecular target: T2, Corticotropin-releasing factor receptor 2/Corticotropin-releasing factor-binding protein (Homo sapiens, UniProt P24387+Q13324); test: activators of CRF receptor 2 with binding protein – uHTS hits, confirmation (AID 602473); assay type: functional; conditions: read-out: EC50_Mean
T2 sequence (Q13324 whole entry): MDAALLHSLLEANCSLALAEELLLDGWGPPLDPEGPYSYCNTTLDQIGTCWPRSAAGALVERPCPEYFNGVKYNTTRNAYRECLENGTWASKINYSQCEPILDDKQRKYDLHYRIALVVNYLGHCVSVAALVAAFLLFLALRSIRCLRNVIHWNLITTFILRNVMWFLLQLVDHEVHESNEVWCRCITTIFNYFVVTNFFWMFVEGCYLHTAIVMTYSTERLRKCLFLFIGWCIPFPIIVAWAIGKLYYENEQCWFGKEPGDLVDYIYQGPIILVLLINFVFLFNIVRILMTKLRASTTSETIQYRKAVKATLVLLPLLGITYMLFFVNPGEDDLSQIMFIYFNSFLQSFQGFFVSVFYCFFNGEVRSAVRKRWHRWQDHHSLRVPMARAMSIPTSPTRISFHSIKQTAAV
T2 sequence (P24387 whole entry): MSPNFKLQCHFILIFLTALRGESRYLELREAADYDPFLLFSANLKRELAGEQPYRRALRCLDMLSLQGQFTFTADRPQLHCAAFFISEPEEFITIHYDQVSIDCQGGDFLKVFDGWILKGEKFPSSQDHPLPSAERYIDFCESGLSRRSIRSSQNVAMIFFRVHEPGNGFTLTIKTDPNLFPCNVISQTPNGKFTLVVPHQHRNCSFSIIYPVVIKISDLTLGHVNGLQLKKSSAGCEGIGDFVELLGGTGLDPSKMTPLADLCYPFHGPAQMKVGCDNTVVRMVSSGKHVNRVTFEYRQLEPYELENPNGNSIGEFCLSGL

[3] = molecular target: T3, Rac GTPase-activating protein 1 (Homo sapiens, UniProt Q9H0H5); test: blockers of MgcRacGAP-driven Rac1 GTP hydrolysis – biochemical, ADP Hunter fluorescence, primary and confirmatory, confirmation (AID 624330); assay type: functional
T3 sequence (Q9H0H5 whole entry): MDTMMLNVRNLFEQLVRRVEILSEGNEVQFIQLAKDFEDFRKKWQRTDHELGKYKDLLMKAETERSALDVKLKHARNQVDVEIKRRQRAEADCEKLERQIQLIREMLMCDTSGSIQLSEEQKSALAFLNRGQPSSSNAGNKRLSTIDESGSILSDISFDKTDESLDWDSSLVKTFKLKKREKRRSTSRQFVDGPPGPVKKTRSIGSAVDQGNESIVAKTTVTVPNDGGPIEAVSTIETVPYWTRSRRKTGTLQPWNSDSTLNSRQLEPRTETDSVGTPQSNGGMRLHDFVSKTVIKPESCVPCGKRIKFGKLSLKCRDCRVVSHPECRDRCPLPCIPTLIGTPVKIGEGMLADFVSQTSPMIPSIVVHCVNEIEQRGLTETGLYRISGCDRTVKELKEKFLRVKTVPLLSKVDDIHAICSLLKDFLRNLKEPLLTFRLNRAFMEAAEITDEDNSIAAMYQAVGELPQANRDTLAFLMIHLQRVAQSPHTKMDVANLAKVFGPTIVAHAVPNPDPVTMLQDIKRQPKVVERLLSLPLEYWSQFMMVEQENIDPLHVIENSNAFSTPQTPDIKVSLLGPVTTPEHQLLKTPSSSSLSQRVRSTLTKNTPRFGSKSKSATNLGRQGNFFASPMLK

[4] = molecular target: T4, Heat shock factor protein 1 (Mus musculus, UniProt P38532); test: enhancement of HSF1-driven luciferase signal – cell-based, NIH3T3, luminescence, dose retest, confirmation (AID 435004); assay type: functional;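 note: stress induced by proteasome inhibitor MG132 added 30 min after compound; luciferase reporter driven by HSF1 response element in NIH3T3 cells; actives raise luminescence as potentiators of the MG132 stress response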
T4 sequence (P38532 whole entry): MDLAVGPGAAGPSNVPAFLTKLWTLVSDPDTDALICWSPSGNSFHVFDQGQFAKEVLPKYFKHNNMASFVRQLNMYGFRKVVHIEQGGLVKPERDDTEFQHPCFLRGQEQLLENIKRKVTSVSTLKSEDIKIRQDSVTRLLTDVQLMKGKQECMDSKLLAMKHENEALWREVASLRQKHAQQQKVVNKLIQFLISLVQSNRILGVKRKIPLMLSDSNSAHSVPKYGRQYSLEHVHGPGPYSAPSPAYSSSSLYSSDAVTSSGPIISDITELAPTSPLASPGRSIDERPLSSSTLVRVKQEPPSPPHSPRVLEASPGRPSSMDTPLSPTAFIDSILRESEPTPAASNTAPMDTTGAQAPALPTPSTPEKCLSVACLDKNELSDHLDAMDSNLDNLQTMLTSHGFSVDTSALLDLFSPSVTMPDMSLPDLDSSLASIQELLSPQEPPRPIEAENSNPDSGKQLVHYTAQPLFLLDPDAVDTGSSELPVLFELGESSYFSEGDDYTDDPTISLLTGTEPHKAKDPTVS

[5] = NIH3T3 cell viability loss – ATP luminescence, mouse fibroblasts, counter-screen, dose response (AID 2010); assay type: functional, cell-based;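 note: cells exposed to compound for about 90 hours before reading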
[6] = Trypanosoma cruzi growth suppression in host cells – NIH3T3 host cells, beta-gal luminescence, confirmation (AID 2044); assay type: functional, cell-based;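 note: intracellular parasites grown in NIH/3T3 mouse fibroblasts as host cells; luminescent beta-galactosidase reporter signal from transgenic T. cruzi replicating inside host cells; inhibitors lower the luminescence signal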

Chain of Cytochrome P450 2D6 (P10635 whole entry): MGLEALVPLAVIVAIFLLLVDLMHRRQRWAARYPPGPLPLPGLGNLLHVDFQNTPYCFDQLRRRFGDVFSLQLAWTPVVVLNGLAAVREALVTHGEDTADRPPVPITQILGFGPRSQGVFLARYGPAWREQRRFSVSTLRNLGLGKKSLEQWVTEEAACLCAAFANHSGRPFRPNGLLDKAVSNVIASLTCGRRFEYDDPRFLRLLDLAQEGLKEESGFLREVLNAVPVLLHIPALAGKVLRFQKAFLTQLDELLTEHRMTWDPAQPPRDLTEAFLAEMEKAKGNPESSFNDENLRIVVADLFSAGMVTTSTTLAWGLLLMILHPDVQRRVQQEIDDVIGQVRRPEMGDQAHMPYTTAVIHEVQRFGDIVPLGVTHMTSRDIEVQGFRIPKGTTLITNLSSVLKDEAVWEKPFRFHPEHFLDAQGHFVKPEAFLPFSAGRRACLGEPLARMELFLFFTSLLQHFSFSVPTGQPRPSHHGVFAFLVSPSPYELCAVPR
Chain of Cytochrome P450 2C9 (P11712 whole entry): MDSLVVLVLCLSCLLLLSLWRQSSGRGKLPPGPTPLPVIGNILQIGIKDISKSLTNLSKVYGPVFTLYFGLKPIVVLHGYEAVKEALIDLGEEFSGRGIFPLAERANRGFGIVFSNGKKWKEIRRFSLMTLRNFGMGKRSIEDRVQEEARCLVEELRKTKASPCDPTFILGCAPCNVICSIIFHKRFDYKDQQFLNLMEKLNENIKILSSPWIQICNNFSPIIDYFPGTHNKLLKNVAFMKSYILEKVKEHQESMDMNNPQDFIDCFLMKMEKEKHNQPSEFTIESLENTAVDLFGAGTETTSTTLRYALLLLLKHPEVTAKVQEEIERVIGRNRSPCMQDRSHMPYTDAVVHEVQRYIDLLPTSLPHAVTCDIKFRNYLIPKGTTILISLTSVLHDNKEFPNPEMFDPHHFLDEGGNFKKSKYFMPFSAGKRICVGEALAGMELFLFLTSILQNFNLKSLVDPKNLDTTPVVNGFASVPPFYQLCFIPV
Chain of Cytochrome P450 2C19 (P33261 whole entry): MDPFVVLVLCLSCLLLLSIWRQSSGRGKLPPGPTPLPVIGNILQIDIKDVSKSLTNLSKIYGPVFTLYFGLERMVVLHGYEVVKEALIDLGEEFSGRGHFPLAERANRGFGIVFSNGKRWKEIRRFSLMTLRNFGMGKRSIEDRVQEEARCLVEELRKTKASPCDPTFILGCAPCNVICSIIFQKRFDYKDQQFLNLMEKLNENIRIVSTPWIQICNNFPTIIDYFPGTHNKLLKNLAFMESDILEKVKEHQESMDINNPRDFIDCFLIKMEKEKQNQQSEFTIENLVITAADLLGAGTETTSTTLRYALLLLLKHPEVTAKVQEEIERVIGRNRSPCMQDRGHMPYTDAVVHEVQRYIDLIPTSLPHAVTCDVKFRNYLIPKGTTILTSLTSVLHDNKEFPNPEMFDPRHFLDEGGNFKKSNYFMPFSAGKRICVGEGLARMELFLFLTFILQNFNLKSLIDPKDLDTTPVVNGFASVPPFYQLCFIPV

AC50 (Cytochrome P450 2C9): 3.16 µM (inconclusive)
AC50 (Cytochrome P450 1A2): 3.16 µM (inconclusive)
SMILES: O=C(CCN1CCCCC1)c1csc2ccccc12

AC50 (Cytochrome P450 2C9): 20 µM (inconclusive)
AC50 (Cytochrome P450 2C19): 39.8 µM (inconclusive)
SMILES: COC(=O)N1CCC[C@@]2(CCN(c3ccccn3)C2)C1

SMILES: Cc1nc(SCc2ccccc2F)c2cnn(-c3ccccc3)c2n1
CC50 [1]: 28.5 µM (active)

AC50 (Cytochrome P450 2C9): 0.112 µM (inconclusive)
AC50 (Cytochrome P450 2C19): 39.8 µM (inconclusive)
SMILES: COc1ccccc1Cn1c(=S)[nH]c2cc(C(=O)N3CCN(C)CC3)ccc2c1=O

AC50 (Cytochrome P450 2D6): 11.2 µM (inconclusive)
AC50 (Cytochrome P450 2C9): 5.01 µM (inconclusive)
AC50 (Cytochrome P450 1A2): 28.2 µM (inconclusive)
SMILES: CCC(=O)Nc1cc(-c2nn(C)c(=O)c3ccccc23)ccc1N1CCCCC1

AC50 (Cytochrome P450 2D6): 39.8 µM (inconclusive)
AC50 (Cytochrome P450 2C9): 31.6 µM (inconclusive)
AC50 (Cytochrome P450 1A2): 25.1 µM (inconclusive)
SMILES: COC(=O)N1CCC2(CCCN(c3ccccn3)C2)CC1

AC50 (Cytochrome P450 2C9): 7.94 µM (inconclusive)
SMILES: O=S(=O)(O)c1cc(O)c2c(O)c(/N=N\c3cccc4ccccc34)c(S(=O)(=O)O)cc2c1

SMILES: N#Cc1nc(COc2ccccc2Cl)oc1N1CCCC1
CC50 [1]: 41.5 µM (active)

SMILES: COc1ccccc1NC(=O)COc1ccc(Br)cc1CO
CC50 [1]: > 50 µM (active)

EC50 [2]: 18.4 µM (active)
SMILES: CCOC(=O)/C(C#N)=C(C)/C=C1\Sc2ccccc2N1CC

IC50 [3]: 98.5 µM (active)
SMILES: COC(=O)CCNCCSc1nnc(-c2ccco2)n1Cc1ccccc1

SMILES: CCc1ccccc1NS(=O)(=O)c1ccc(OC)c2ncccc12
CC50 [1]: 16 µM (active)

SMILES: Cc1nc2ccc3nc(NC(=O)C4COc5ccccc5O4)sc3c2s1 (configuration not stated)
CC50 [1]: 41.4 µM (active)

EC50 [2]: > 53 µM (inactive)
SMILES: COC(=O)COc1ccc(Oc2nc(SC)nc(N(C)C)n2)nn1

AC50 (Cytochrome P450 2C9): 1.78 µM (inconclusive)
AC50 (Cytochrome P450 1A2): 14.1 µM (inconclusive)
AC50 (Cytochrome P450 2C19): 0.631 µM (inconclusive)
EC50 [4]: > 260 µM (inactive)
SMILES: Cc1cc(C)c(S(=O)(=O)n2ccc(-c3ccc(OCCN(C)c4ccccn4)cc3)n2)c(C)c1

SMILES: CCOc1ccc(NC2c3ccccc3C(=O)N2Cc2ccc3c(c2)OCO3)cc1 (configuration not stated)
CC50 [1]: 14.6 µM (active)

SMILES: CCOc1ccccc1C1CC(c2cccc(NS(C)(=O)=O)c2)=NN1C(=O)c1ccccc1 (configuration not stated)
CC50 [1]: 35.5 µM (active)

AC50 (Cytochrome P450 2C9): 22.4 µM (inconclusive)
AC50 (Cytochrome P450 1A2): 25.1 µM (inconclusive)
SMILES: COc1ccc2c(c1)C(=O)N(c1ccccc1)C(=O)C2

AC50 (Cytochrome P450 2C9): 28.2 µM (inconclusive)
AC50 (Cytochrome P450 1A2): 0.00631 µM (inconclusive)
AC50 (Cytochrome P450 2C19): 14.1 µM (inconclusive)
SMILES: CCCS(=O)(=O)N1CCCC(C(=O)NCCCN2CCN(c3cccc(Cl)c3)CC2)C1 (configuration not stated)

SMILES: CC(C)(C)NC(=O)C(c1ccncc1)N(Cc1ccc(F)cc1)C(=O)c1ccc(-c2ccccc2)[nH]1 (configuration not stated)
CC50 [1]: 14.6 µM (active)
EC50 [5]: > 60 µM (inconclusive)
EC50 [6]: 681 nM (active)

EC50 [2]: > 53 µM (inactive)
SMILES: COC(=O)c1cc2sc(Cl)cc2n1CC(=O)Nc1ccc(OC)c(OC)c1OC

AC50 (Cytochrome P450 2C9): 0.501 µM (inconclusive)
SMILES: COc1ccc(C2C(C(=O)N3CCOCC3)c3ccccc3C(=O)N2c2ccc(OC)cc2)cc1 (configuration not stated)

SMILES: Cc1c(OCC(=O)NCc2ccccn2)ccc2c3c(c(=O)oc12)CCCC3
CC50 [1]: 21.2 µM (active)

AC50 (Cytochrome P450 2D6): 17.8 µM (inconclusive)
AC50 (Cytochrome P450 2C9): 31.6 µM (inconclusive)
SMILES: COc1ccc2[nH]c(SCC(=O)c3ccco3)nc2c1

SMILES: Cc1ccc2sc(O)nc2c1
CC50 [1]: 19.7 µM (active)

AC50 (Cytochrome P450 2C9): 7.94 µM (inconclusive)
SMILES: O=C(CSCc1c(Cl)cccc1Cl)NCc1cccnc1

EC50 [2]: 10.7 µM (active)
SMILES: CC(C(=O)Nc1ccc2c(c1)OCCO2)c1ccc([N+](=O)[O-])cc1 (configuration not stated)

IC50 [3]: 41.6 µM (active)
SMILES: COc1cc(/C(C)=N\NC(=O)CSc2nc3ccccc3n2C)ccc1O

IC50 [3]: 40.2 µM (active)
SMILES: CCOc1cc(/C=N/Nc2nc(O)nnc2C)ccc1O

SMILES: Cc1ccc(-c2ccc(/C=N/n3cnnc3)o2)cc1Cl
CC50 [1]: 49.7 µM (active)

AC50 (Cytochrome P450 2D6): 22.4 µM (inconclusive)
AC50 (Cytochrome P450 2C9): 35.5 µM (inconclusive)
SMILES: CCc1nnc(S)n1/N=C/c1ccc2c(c1)OCO2

IC50 [3]: 52.6 µM (active)
SMILES: CCOC(=O)N/N=C/c1ccc(N2CCOCC2)s1

SMILES: CCN(CC)Cc1c(C(=O)N/N=C/c2cccc(OCc3cccc(Cl)c3)c2)nnn1-c1nonc1N
CC50 [1]: 18.3 µM (active)

IC50 [3]: 102 µM (active)
SMILES: CCOC(=O)c1c(NC=C2C(=O)CCCC2=O)sc(C)c1C

SMILES: Nc1ccc(Sc2ccc(N)cc2)cc1 [4,4'-THIODIANILINE]
IC50 [3]: 13.2 µM (active)
